Entries after “also recorded” stand apart in the source; their conditions may differ.
How the values were obtained:
[1] = test system: peptide-pulsed T2 cells; assay: IFN-gamma ELISA on expanded CTL lines, HLA-A02 peptides; assay type: cell-based, human; conditions: expanded cells of positive wells, FIG. 3A-D, 3F
Experimental: CTLs were expanded in culture using a similar method as reported by Riddell, et al. (Walter et al., N Engl J Med 333(16): 1038-44, 1995; Riddell et al., Nat Med 2(2): 216-23, 1996 February). A total of 5×10^4 CTLs were resuspended in 25 ml of AIM-V/5% AS with 2 kinds of human B-lymphoblastoid cell lines, inactivated with MMC, in the presence of 40 ng/ml of anti-CD3 monoclonal antibody (Pharmingen). One day after initiating the cultures, 120 IU/ml of IL-2 were added to the cultures. The cultures were fed with fresh AIM-V/5% AS containing 30 IU/ml of IL-2 on days 5, 8 and 11.
To examine the specific CTL activity, IFN-gamma ELISPOT assay and IFN-gamma ELISA were performed. Briefly, peptide-pulsed A24-LCL, T2 cell (1×10^4/well) or the cells endogenously expressing Foxp3 and HLA molecule was prepared as a stimulator cells. Cultured CTL lines in 48 wells were used as a responder cells. IFN-gamma ELISPOT assay and IFN-gamma ELISA were performed under manufacture procedure.
These cells in the positive wells were expanded and performed IFN-gamma ELISA assay.

[2] = test system: BALB/c mice; assay: Immunogenicity of epitope peptides in BALB/c mice (IFN-gamma ELISPOT on splenocytes); assay type: in vivo
Experimental: IFA-conjugated peptide or IFA only were injected s.c. into BALB/c mice on day 0 and 7. On day 14, splenocytes of vaccinated mice were harvested and used as responder cells. 1×10^4 RLmale1 cells pulsed corresponding peptide (solid square), or no peptide (open square) were used as stimulator cells for IFN-gamma ELISPOT assay. Vaccination using Foxp3-252_h (A) and Foxp3-252_m (B) were performed into five mice (M1-M5) and IFA without any peptide injection were performed into three mice (N1-N3) as control in each assay.
For priming the peptide-specific CTLs, immunization was given using 100 mcl vaccine mixture, which contains 50 mcl HLA-A24 restricted peptide and 50 mcl IFA per mouse. The vaccine was injected s.c. into the right flank of mice for the first immunization on day 0 and in the left flank for the second on the day 7. On day 14, splenocytes from vaccinated mice were used as the responder cells, and RLmale1 cells pulsed with or without peptides were used as the stimulator cells for IFN-gamma ELISPOT assay.
To evaluate the immunogenicity of Foxp3-9-252 peptide for BALB/c mice, immunization with human Foxp3-9-252 peptide (Foxp3-252_h; KLSAMQAHL)(SEQ ID NO: 17) and mouse Foxp3-9-252 peptide (Foxp3-252_m; KLGAMQAHL) (SEQ ID NO: 89) were performed, respectively. After second injection of peptide, peptide specific CTL activity was determined by IFN-gamma ELISPOT assay (FIG. 5).

[3] = test system: 4T1 breast cancer cells; assay: In vivo antitumor effects of vaccination, 4T1 tumor; set-up: species or system BALB/c mice; conditions: 4T1 s.c. day 0, vaccination day 3 and 10, compared with control mice, FIG. 6
Experimental: 1×10^5 4T1 breast cancer cell lines were injected into BALB/c mice on day 0. IFA-conjugated with Foxp3-252_h (-open circle-), Foxp3-252_m (-solid square-), no peptide (-solid triangle-) was injected on day 3 and 10. As control of normal tumor growth, non-vaccinated mice (-x-) were also prepared in this assay.
4T1 cells (1×10^5 per mouse) were injected s.c. into the right flank of BALB/c mice on day 0. Vaccination was done on days 3 and 10 using hFoxp3-252 (KLSAMQAHL: SEQ ID NO: 17) or mFoxp3-252 (KLGAMQAHL: SEQ ID NO: […]) IFA-conjugated peptides.
To examine the antitumor effects with peptide vaccination targeted Foxp3, in vivo therapeutic setting was attempted by using 4T1 tumor cells and BALB/c mice. The 4T1 breast cancer cells were injected s.c. into BALB/c mice on day 0, and then vaccination was done on these mice 3 and 10 days after the tumor challenge.

KLSAMQAHL (peptide vaccine) [SEQ ID NO 17]
IFN-gamma production of CTL lines stimulated with peptide, compared with the control [1]: potent IFN-gamma production | mice with peptide specific CTL response ([2]; IFA-conjugated peptide s.c. day 0 and 7, splenocytes day 14, RLmale1 stimulator cells, FIG. 5): three of five | induction of epitope specific CTLs in vivo ([2]; vaccination of BALB/c mice, discussion, listed as hFoxp3-252): could induce epitope specific CTLs in vivo; also recorded: superior to mFoxp3-252 peptide | tumor growth / antitumor effect ([3]; listed as Foxp3-252_h): tumor growth apparently reduced; also recorded: Significant difference of tumor growth suppression | tumor growth / antitumor effect ([3]; listed as hFoxp3-252): obviously anti-tumor effects; also recorded: superior to mFoxp3-252 peptide
